The results in this text go back to patent US20140296212A1, “SUBSTITUTED PHENOXYPROPYLCYCLOAMINE DERIVATIVES AS HISTAMINE-3 (H3) RECEPTOR LIGANDS” (CEPHALON, INC., priority 2009, published 2014).

Data set [1] deals with T1, rat histamine H3 receptor (Rattus norvegicus, UniProt Q9QYN8).
T1 construct: encoding the entire 445-amino-acid rat histamine H3 receptor; expressed in transfected cells
The experiment in a line: Rat H3 radioligand binding ([3H]-N-alpha-methylhistamine, SPA). The note with it: membranes of CHO-A3 cells expressing rat H3; [3H]-N-alpha-methylhistamine; read-out: Rat H3 Ki. The method, boiled down:
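Membranes from CHO-A3 cells stably expressing full-length rat H3 receptor (445 aa) incubated with ~1 nM [3H]-N-alpha-methylhistamine and compound (0.01 nM–30 μM) in 50 mM Tris HCl pH 7.4, 5 mM MgCl2, 0.1% BSA, 4 h, room temperature; SPA bead read-out. Non-specific binding defined with 10 μM clobenpropit.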

A further data set deals with T2, human H3 receptor (Homo sapiens, UniProt Q9Y5N1).
T2 construct: expressed in transfected cells
T2 sequence (Q9Y5N1 whole entry): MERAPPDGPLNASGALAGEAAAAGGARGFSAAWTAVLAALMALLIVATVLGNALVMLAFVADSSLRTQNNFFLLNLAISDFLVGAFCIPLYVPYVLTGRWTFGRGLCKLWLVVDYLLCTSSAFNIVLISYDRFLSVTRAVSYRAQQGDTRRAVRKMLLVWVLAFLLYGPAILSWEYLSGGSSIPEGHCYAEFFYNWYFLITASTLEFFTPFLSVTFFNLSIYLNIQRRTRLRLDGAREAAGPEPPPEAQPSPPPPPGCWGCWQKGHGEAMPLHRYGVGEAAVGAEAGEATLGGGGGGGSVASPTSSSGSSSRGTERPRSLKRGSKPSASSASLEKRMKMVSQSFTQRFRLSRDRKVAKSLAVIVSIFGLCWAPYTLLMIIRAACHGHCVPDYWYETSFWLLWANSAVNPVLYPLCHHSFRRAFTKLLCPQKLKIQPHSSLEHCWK
The experiment in a line: Human H3 radioligand binding ([3H]-N-alpha-methylhistamine, SPA). As to conditions: membranes of CHO cells expressing human H3. Put shortly: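 Membranes from H3-expressing cells (10 μg protein/well) in 50 mM Tris HCl pH 7.4, 5 mM MgCl2, 0.1% BSA with ~1 nM [3H]-N-alpha-methylhistamine and compound (0.01 nM–30 μM), SPA beads, 4 h, room temperature, dark. Non-specific binding defined with 10 μM clobenpropit; bound radioligand read by scintillation counting.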

Molecules are shown by their SMILES.

T1 sequence (Q9QYN8 whole entry): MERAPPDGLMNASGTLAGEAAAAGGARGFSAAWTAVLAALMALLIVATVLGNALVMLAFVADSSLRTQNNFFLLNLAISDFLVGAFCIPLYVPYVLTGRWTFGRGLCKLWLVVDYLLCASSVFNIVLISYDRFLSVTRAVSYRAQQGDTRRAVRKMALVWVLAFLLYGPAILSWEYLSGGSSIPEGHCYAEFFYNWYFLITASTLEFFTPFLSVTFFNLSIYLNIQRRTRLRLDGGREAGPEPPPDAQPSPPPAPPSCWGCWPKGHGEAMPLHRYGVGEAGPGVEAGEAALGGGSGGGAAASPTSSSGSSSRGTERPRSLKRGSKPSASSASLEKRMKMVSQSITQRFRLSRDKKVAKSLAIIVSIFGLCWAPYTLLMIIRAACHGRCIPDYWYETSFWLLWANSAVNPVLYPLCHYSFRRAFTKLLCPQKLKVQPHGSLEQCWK

Turning to `C[C@@H]1CCCN1CCCOc1ccc(C(=O)CN2CCN(C(=O)N(C)C)CC2)cc1F` [Example 123], the melting point – broadly, the temperature, or range, at which the solid turns liquid – is 81 °C. Moreover, the Ki – broadly, a dissociation constant, usually derived from enzyme kinetics or from competition with a known ligand – in data set [1] fell in the range of 0.1 to 100 nM. Moreover, the Ki on human H3 receptor fell in the range of 0.1 to 100 nM.
Consider `C[C@@H]1CCCN1CCCOc1cccc(C(=O)CN2CCN(C(=O)c3ccccc3)CC2)c1` [Example 153, 2-(4-Benzoyl-piperazin-1-yl)-1-{3-[3-((R)-2-methyl-pyrrolidin-1-yl)-propoxy]-phenyl}-ethanone], for which the melting point lay within 125 to 135 °C. Also, the Ki in data set [1] lay within 501 to 1000 nM. For the same compound, at human H3 receptor, the Ki fell in the range of 101 to 500 nM.
For the compound `C[C@@H]1CCCN1CCCOc1ccc(C(=O)CN2CCN(C(=O)N3CCCC3)CC2)cc1` [Example 75, 1-{4-[3-((R)-2-Methyl-pyrrolidin-1-yl)-propoxy]-phenyl}-2-[4-(pyrrolidine-1-carbonyl)-piperazin-1-yl]-ethanone], the melting point was in the range of 118 to 130 °C. The Ki in data set [1] fell in the range of 0.1 to 100 nM. For the same compound, the Ki on human H3 receptor is 0.1 to 100 nM.
Compound `CC1CCC(C)N1CC(=O)c1ccc(OCCCN2CCC[C@H]2C)cc1` (stereo partly drawn) [Example 58, 2-(2,5-Dimethyl-pyrrolidin-1-yl)-1-{4-[3-((R)-2-methyl-pyrrolidin-1-yl)-propoxy]-phenyl}-ethanone] displayed a melting point of 100 to 106 °C. Moreover, the Ki in data set [1] lay within 0.1 to 100 nM. On human H3 receptor, this compound returned a Ki of 0.1 to 100 nM.
`C[C@@H]1CCCN1CCCOc1ccc(C(=O)CN2CCN(C(=O)C3CCCCC3)CC2)cc1F` [Example 146, 2-(4-Cyclohexanecarbonyl-piperazin-1-yl)-1-{3-fluoro-4-[3-((R)-2-methyl-pyrrolidin-1-yl)-propoxy]-phenyl}-ethanone] had a melting point of 232 °C. In data set [1], the Ki lay in the range of 0.1 to 100 nM. On human H3 receptor, the Ki fell in the range of 0.1 to 100 nM.
In the case of `C[C@@H]1CCCN1CCCOc1ccc(C(=O)CN2CCN(C(=O)c3cccn3C)CC2)cc1` [Example 84, 2-[4-(1-Methyl-1H-pyrrole-2-carbonyl)-piperazin-1-yl]-1-{4-[3-((R)-2-methyl-pyrrolidin-1-yl)-propoxy]-phenyl}-ethanone], the melting point fell in the range of 221 to 224 °C. Besides, the Ki in data set [1] lay within 0.1 to 100 nM. Further, the Ki on human H3 receptor lay within 0.1 to 100 nM.
`C[C@@H]1CCCN1CCCOc1ccc(C(=O)CN2CCN(C(=O)Oc3ccc(F)cc3)CC2)cc1` [Example 149, 4-(2-{4-[3-((R)-2-Methyl-pyrrolidin-1-yl)-propoxy]-phenyl}-2-oxo-ethyl)-piperazine-1-carboxylic acid 4-fluoro-phenyl ester] came in with a melting point of 234 to 236 °C. Further, the Ki in data set [1] lay in the range of 0.1 to 100 nM. For the same compound, the Ki on human H3 receptor lay within 0.1 to 100 nM.
With `CC(C)N1CCC(Oc2ccc(C(=O)CN3CCCC(F)(F)C3)cc2)CC1` [Example 53, 2-(3,3-Difluoro-piperidin-1-yl)-1-[4-(1-isopropyl-piperidin-4-yloxy)-phenyl]-ethanone], the melting point is 160 to 165 °C (dec.). Moreover, the Ki in data set [1] was 101 to 500 nM. This compound also came in with a Ki at human H3 receptor of 0.1 to 100 nM.
For `C[C@@H]1CCCN1CCCOc1ccc(C(=O)CN2CCC(F)(F)CC2)cc1Cl` [Example 134, 1-{3-Chloro-4-[3-((R)-2-methyl-pyrrolidin-1-yl)-propoxy]-phenyl}-2-(4,4-difluoro-piperidin-1-yl)-ethanone], in that order: 130 to 143 °C, 101 to 500 nM and 0.1 to 100 nM.
The like results for `Cc1cc(C(=O)CN2CCNC(=O)C2)ccc1OCCCN1CCC[C@H]1C` [Example 150, 4-(2-{3-Methyl-4-[3-((R)-2-methyl-pyrrolidin-1-yl)-propoxy]-phenyl}-2-oxo-ethyl)-piperazin-2-one] were, in that order, 79 to 85 °C, 101 to 500 nM and 0.1 to 100 nM.
The like results for `C[C@@H]1CCCN1CCCOc1ccc(C(=O)CN2CCN(c3ncccn3)CC2)cc1F` [Example 119, 1-{3-Fluoro-4-[3-((R)-2-methyl-pyrrolidin-1-yl)-propoxy]-phenyl}-2-(4-pyrimidin-2-yl-piperazin-1-yl)-ethanone] were, in that order, 219 °C, 0.1 to 100 nM and 0.1 to 100 nM.
Compound `C[C@@H]1CCCN1CCCOc1ccc(C(=O)CN2CCN(C(=O)c3ccc(C(F)(F)F)cc3)CC2)cc1` [Example 92, 1-{4-[3-((R)-2-Methyl-pyrrolidin-1-yl)-propoxy]-phenyl}-2-[4-(4-trifluoromethyl-benzoyl)-piperazin-1-yl]-ethanone] displayed a melting point of 227 to 230 °C. Besides, the inhibition constant Ki in data set [1] is 0.1 to 100 nM. For the same compound, the Ki on human H3 receptor was 0.1 to 100 nM.
Turning to `CCOC(=O)N1CCN(CC(=O)c2ccc(OCCCN3CCC[C@H]3C)cc2)CC1` [Example 115, 4-(2-{4-[3-((R)-2-Methyl-pyrrolidin-1-yl)-propoxy]-phenyl}-2-oxo-ethyl)-piperazine-1-carboxylic acid ethyl ester], the melting point lay within 218 to 219 °C. In data set [1], the Ki is 0.1 to 100 nM. On human H3 receptor, the Ki lay within 0.1 to 100 nM.
The compound `C[C@@H]1CCCN1CCCOc1ccc(C(=O)CN2CCC(F)(F)CC2)cc1` [Example 44, 2-(4,4-Difluoro-piperidin-1-yl)-1-{4-[3-((R)-2-methyl-pyrrolidin-1-yl)-propoxy]-phenyl}-ethanone] gave a melting point of 127 to 140 °C. For the same compound, in data set [1], the Ki is 0.1 to 100 nM. Moreover, on human H3 receptor, the Ki lay within 0.1 to 100 nM.
For the compound `CC(C)C(=O)N1CCN(CC(=O)c2ccc(OCCCN3CCC[C@H]3C)c(Cl)c2)CC1` [Example 118, 1-[4-(2-{3-Chloro-4-[3-((R)-2-methyl-pyrrolidin-1-yl)-propoxy]-phenyl}-2-oxo-ethyl)-piperazin-1-yl]-2-methyl-propan-1-one], the melting point was 140 °C (dec.). Moreover, the Ki in data set [1] is 0.1 to 100 nM. Besides, at human H3 receptor, the Ki lay within 0.1 to 100 nM.
The compound `C[C@@H]1CCCN1CCCOc1ccc(C(=O)CN2CCN(C)C(=O)C2)cc1` [Example 155, 1-Methyl-4-(2-{4-[3-((R)-2-methyl-pyrrolidin-1-yl)-propoxy]-phenyl}-2-oxo-ethyl)-piperazin-2-one] displayed a melting point of 115 to 120 °C. Further, the Ki in data set [1] fell in the range of 0.1 to 100 nM. In addition, at human H3 receptor, the inhibitory constant (Ki) fell in the range of 0.1 to 100 nM.
`C[C@@H]1CCCN1CCCOc1ccc(C(=O)CN2CCN(C(=O)N3CCOCC3)CC2)cc1` [Example 70, 1-{4-[3-((R)-2-Methyl-pyrrolidin-1-yl)-propoxy]-phenyl}-2-[4-(morpholine-4-carbonyl)-piperazin-1-yl]-ethanone] came in with a melting point of 116 to 125 °C. For the same compound, the Ki in data set [1] is 0.1 to 100 nM. Moreover, the inhibition constant Ki on human H3 receptor lay in the range of 0.1 to 100 nM.
Turning to `C[C@@H]1CCCN1CCCOc1c(Cl)cc(C(=O)CN2CCN(C(=O)c3ccccc3)CC2)cc1Cl` [Example 96, 2-(4-Benzoyl-piperazin-1-yl)-1-{3,5-dichloro-4-[3-((R)-2-methyl-pyrrolidin-1-yl)-propoxy]-phenyl}-ethanone], the melting point is 111 °C. Besides, the Ki in data set [1] lay in the range of 101 to 500 nM. Further, on human H3 receptor, the Ki fell in the range of 0.1 to 100 nM.
As for `C[C@@H]1CCCN1CCCOc1ccc(C(=O)CN2CCN(c3ncccn3)CC2)cc1` [Example 90, 1-{4-[3-((R)-2-Methyl-pyrrolidin-1-yl)-propoxy]-phenyl}-2-(4-pyrimidin-2-yl-piperazin-1-yl)-ethanone], the melting point fell in the range of 112 to 114 °C. For the same compound, the inhibition constant (Ki) in data set [1] is 0.1 to 100 nM. For the same compound, the Ki at human H3 receptor is 0.1 to 100 nM.
